Experimental data as given in PMC7432509, “Investigating the Product Profiles and Structural Relationships of New Levansucrases with Conventional and Non-Conventional Substrates” (International Journal of Molecular Sciences, 2020).

Columns and labels:
Type in all cases: biochemical
[1] = biological target: T1, LS from Paraburkholderia graminis (Paraburkholderia graminis, UniProt B1G3X6); test: HPAEC-PAD time course of sucrose conversion; details: 0.8 M sucrose, 30 °C, 5-7 U/mL; fructosyl donor and acceptor
T1 construct: gene BgramDRAFT_4066; pET22b(+), E. coli BL21(DE3), HisTrap purified
T1 sequence (B1G3X6 36-529): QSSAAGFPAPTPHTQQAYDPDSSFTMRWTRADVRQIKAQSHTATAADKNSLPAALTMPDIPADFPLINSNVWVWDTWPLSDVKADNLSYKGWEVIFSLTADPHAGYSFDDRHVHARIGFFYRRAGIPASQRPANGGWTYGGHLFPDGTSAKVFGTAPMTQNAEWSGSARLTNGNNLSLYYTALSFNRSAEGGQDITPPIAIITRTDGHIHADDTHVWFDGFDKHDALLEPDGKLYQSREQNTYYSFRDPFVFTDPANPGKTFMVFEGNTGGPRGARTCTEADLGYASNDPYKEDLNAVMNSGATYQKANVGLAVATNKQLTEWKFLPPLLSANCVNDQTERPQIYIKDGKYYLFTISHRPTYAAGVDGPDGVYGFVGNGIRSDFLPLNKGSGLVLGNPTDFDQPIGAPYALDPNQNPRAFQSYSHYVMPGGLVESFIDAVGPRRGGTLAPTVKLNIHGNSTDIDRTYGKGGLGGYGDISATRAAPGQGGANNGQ

[2] = biological target: T2, LS from Gluconobacter oxydans (Gluconobacter oxydans, UniProt Q5FSK0); test: HPAEC-PAD time course of sucrose conversion; details: 0.8 M sucrose, 30 °C, 5-7 U/mL; fructosyl donor and acceptor
T2 construct: gene GOX0873; pET22b(+), E. coli BL21(DE3), HisTrap purified
T2 sequence (Q5FSK0 1-436): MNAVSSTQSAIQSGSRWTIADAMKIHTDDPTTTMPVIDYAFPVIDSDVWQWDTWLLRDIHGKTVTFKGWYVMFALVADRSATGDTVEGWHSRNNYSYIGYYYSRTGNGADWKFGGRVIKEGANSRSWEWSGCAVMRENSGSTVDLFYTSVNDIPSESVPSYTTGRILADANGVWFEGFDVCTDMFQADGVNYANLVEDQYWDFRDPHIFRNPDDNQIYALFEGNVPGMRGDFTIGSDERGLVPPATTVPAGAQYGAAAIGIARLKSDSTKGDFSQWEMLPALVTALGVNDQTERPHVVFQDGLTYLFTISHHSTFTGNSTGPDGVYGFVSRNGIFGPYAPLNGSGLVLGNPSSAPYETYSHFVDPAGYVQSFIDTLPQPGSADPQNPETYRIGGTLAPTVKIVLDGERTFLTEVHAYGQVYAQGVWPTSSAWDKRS

[3] = biological target: T3, LS from Beijerinckia indica subsp. indica (Beijerinckia indica, UniProt B2IF78); test: HPAEC-PAD, bioconversion of raffinose; details: raffinose as sole fructosyl donor and acceptor (0.8 M in methods, 0.9 M in figure legend)
T3 construct: gene Bind_2021; pET22b(+), E. coli BL21(DE3), HisTrap purified
T3 sequence (B2IF78 29-534): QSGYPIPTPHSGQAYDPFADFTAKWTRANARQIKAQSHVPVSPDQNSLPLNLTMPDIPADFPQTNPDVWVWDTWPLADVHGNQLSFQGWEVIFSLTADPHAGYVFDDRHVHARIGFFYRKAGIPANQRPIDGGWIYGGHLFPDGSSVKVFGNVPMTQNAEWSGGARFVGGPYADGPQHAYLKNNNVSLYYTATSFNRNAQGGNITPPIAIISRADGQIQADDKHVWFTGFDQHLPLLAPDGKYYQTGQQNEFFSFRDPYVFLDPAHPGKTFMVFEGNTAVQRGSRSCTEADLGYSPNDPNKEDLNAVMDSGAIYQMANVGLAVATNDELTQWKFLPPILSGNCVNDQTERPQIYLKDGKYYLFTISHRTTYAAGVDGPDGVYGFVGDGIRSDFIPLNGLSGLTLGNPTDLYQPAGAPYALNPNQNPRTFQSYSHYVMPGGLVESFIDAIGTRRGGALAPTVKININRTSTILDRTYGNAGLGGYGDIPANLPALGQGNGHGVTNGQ

[4] = biological target: T4, LS from Novosphingobium aromaticivorans (Novosphingobium aromaticivorans, UniProt Q2G754); test: HPAEC-PAD, bioconversion of raffinose; details: raffinose as sole fructosyl donor and acceptor (0.8 M in methods, 0.9 M in figure legend)
T4 construct: gene Saro_1879; pET22b(+), E. coli BL21(DE3), HisTrap purified
T4 sequence (Q2G754 1-377): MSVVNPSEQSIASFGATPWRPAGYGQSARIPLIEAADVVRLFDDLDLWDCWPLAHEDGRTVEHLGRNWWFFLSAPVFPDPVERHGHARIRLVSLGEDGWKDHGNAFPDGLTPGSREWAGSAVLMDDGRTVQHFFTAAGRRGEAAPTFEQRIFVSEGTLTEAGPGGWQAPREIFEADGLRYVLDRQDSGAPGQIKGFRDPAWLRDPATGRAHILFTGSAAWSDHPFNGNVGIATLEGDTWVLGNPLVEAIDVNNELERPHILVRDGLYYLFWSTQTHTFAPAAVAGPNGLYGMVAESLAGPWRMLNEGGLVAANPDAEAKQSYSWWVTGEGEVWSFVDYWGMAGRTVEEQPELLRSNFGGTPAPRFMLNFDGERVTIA

[5] = biological target: T1, LS from Paraburkholderia graminis; test: HPAEC-PAD, bioconversion of raffinose; details: raffinose as sole fructosyl donor and acceptor (0.8 M in methods, 0.9 M in figure legend)
[6] = biological target: T2, LS from Gluconobacter oxydans; test: HPAEC-PAD, bioconversion of raffinose; details: raffinose as sole fructosyl donor and acceptor (0.8 M in methods, 0.9 M in figure legend)
[7] = biological target: T5, LS from Vibrio natriegens (Vibrio natriegens, UniProt A0AAN0Y6N0); test: HPAEC-PAD, bioconversion of raffinose; details: raffinose as sole fructosyl donor and acceptor (0.8 M in methods, 0.9 M in figure legend)
T5 construct: gene BA890_19745; pET22b(+), E. coli BL21(DE3), HisTrap purified
T5 sequence (A0AAN0Y6N0 28-523): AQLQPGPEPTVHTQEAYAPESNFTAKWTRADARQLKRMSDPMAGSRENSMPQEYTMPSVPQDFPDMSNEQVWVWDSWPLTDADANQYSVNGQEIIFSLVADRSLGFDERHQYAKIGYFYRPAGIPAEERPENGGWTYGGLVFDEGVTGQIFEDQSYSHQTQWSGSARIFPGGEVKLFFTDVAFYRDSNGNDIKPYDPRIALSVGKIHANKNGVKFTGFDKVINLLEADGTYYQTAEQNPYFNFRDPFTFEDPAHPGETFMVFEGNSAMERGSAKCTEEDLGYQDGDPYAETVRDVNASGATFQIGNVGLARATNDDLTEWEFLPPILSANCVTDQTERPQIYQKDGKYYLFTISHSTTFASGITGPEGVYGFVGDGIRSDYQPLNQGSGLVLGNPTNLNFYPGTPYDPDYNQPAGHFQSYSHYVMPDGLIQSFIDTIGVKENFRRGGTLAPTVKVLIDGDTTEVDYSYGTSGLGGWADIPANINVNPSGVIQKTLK

Structure (SMILES) | HPAEC-PAD time course of sucrose conversion [1] | HPAEC-PAD time course of sucrose conversion [2] | HPAEC-PAD, bioconversion of raffinose [3] | HPAEC-PAD, bioconversion of raffinose [4] | HPAEC-PAD, bioconversion of raffinose [5] | HPAEC-PAD, bioconversion of raffinose [6] | HPAEC-PAD, bioconversion of raffinose [7]
OC[C@H]1O[C@@](CO)(O[C@H]2O[C@H](CO)[C@@H](O)[C@H](O)[C@H]2O)[C@@H](O)[C@@H]1O [sucrose] | The LS from P. graminis used the highest amount of sucrose amongst all the enzymes tested | The LSs from G. oxydans and P. graminis almost depleted the sucrose |  |  |  |  | 
OC[C@H]1O[C@H](OC[C@H]2O[C@H](O[C@]3(CO)O[C@H](CO)[C@@H](O)[C@@H]3O)[C@H](O)[C@@H](O)[C@@H]2O)[C@H](O)[C@@H](O)[C@H]1O [raffinose] |  |  | LS from V. natriegens, N. aromaticivorans, and B. indica subsp. indica preferred raffinose as the substrate | LS from V. natriegens, N. aromaticivorans, and B. indica subsp. indica preferred raffinose as the substrate | LS from P. graminis catalyzed the synthesis of multiple oligosaccharides using raffinose | All LSs were able to produce a few different trisaccharides | LS from V. natriegens, N. aromaticivorans, and B. indica subsp. indica preferred raffinose as the substrate
